Experimental data: ChEMBL document CHEMBL5465560, “Selectivity Literature for EUbOPEN Chemogenomic Library” (2024)

Legend:
[1] = biological target: Serine/threonine-protein kinase 38-like (Homo sapiens) (UniProt Q9Y2H1); assay: Selectivity interaction (KinomeScan (DiscoverX)) EUB0000666a STK38L; conditions: at 10 µM
[2] = biological target: T1, Protein arginine N-methyltransferase 7 (Homo sapiens) (UniProt Q9NVM4); conditions: at 1 µM
T1 sequence (whole entry): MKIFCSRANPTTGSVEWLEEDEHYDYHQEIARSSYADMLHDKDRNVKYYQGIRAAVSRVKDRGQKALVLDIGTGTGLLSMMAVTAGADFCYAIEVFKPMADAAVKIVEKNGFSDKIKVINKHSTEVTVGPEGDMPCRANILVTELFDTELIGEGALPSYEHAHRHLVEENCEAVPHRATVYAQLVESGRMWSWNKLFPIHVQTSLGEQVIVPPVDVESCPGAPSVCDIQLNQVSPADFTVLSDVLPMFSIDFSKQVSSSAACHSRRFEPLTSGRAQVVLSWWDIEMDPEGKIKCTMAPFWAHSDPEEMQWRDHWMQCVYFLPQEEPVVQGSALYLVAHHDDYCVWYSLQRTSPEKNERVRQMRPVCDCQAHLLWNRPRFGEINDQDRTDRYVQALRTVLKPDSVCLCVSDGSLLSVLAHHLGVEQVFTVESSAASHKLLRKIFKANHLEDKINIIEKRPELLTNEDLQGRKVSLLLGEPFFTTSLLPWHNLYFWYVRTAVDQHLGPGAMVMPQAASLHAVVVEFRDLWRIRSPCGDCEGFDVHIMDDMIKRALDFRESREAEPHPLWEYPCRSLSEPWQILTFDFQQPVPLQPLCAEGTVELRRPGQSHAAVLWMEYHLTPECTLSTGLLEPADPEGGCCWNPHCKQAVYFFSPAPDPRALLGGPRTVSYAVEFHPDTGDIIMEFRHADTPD

[3] = biological target: Casein kinase II subunit alpha (Homo sapiens, UniProt P68400); assay: Selectivity interaction (KinomeScan (DiscoverX)) EUB0000229b CSNK2A1; conditions: at 10 µM
[4] = biological target: T2, NUAK family SNF1-like kinase 1 (Homo sapiens) (UniProt O60285); assay: Selectivity interaction (KinomeScan (DiscoverX)) EUB0001079a NUAK1; conditions: at 1 µM
T2 sequence (whole entry): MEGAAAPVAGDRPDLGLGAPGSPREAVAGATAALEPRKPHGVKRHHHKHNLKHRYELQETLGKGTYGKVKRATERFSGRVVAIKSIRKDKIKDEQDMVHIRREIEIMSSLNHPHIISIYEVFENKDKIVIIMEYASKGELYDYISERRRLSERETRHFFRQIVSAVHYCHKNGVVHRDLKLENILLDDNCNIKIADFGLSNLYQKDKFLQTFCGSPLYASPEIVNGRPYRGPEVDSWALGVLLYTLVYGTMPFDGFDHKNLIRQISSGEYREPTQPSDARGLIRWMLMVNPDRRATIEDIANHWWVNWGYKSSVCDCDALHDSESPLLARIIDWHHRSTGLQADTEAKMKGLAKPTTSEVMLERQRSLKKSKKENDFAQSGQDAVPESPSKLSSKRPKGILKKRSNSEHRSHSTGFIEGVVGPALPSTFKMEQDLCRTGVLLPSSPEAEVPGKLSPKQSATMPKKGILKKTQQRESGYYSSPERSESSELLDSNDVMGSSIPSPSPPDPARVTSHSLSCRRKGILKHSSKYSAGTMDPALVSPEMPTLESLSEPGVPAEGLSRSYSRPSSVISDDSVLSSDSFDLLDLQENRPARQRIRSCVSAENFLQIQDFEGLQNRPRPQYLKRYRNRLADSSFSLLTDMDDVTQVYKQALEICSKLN

[5] = biological target: Epidermal growth factor receptor (Homo sapiens, UniProt P00533); assay: Selectivity interaction (Kinase panel (Invitrogen)) EUB0000639a EGFR; conditions: at 200 nM
[6] = biological target: Serine/threonine-protein kinase 10 (Homo sapiens) (UniProt O94804); assay: Selectivity interaction (ActivX KiNativ screen (kinase selectivity in THP-1 cell lysates)) EUB0000639a STK10; format: subcellular; conditions: lysate, at 0.01 µM
[7] = biological target: STE20/SPS1-related proline-alanine-rich protein kinase (Homo sapiens) (UniProt Q9UEW8); assay: Selectivity interaction (KinomeScan (DiscoverX)) EUB0000595a STK39; conditions: at 10 µM
[8] = biological target: Tyrosine-protein kinase JAK1 (Homo sapiens, UniProt P23458); assay: Selectivity interaction (KinomeScan (DiscoverX)) EUB0000618a JAK1; conditions: at 10 µM
[9] = biological target: Dual specificity mitogen-activated protein kinase kinase 2 (Homo sapiens) (UniProt P36507); assay: Selectivity interaction (KinomeScan (DiscoverX)) EUB0000655a MAP2K2; conditions: at 10 µM
[10] = system: Tyrosine-protein kinase ABL1 (Homo sapiens), P00519 [Q252H]; assay: Selectivity interaction (KinomeScan (DiscoverX)) EUB0000607a ABL1; conditions: at 10 µM
[11] = biological target: Mitogen-activated protein kinase 11 (Homo sapiens) (UniProt Q15759); assay: Selectivity interaction (SelectScreen profiling (Invitrogen)) EUB0000607a MAPK11; conditions: at 2 µM
Chain of Mitogen-activated protein kinase 11 (Homo sapiens) (Q15759 whole entry): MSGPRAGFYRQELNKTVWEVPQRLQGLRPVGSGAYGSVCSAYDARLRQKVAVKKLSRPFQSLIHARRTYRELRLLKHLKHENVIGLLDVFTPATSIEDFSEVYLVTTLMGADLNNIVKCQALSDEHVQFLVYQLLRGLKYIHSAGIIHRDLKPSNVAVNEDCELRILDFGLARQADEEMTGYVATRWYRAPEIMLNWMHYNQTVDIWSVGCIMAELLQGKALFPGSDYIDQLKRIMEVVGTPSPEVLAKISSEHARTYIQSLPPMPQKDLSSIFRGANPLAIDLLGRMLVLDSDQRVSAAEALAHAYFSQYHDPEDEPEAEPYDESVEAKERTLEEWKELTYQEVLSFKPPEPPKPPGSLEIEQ

[12] = biological target: 5-hydroxytryptamine receptor 2A (Homo sapiens, UniProt P28223); assay: Selectivity interaction (Panel of kinases, GPCRs, ion channels and transporters (enzymatic assay)) EUB0000223bCl HTR2A
EML4-ALK (Homo sapiens) = EML4-ALK (Homo sapiens) (UniProt Q9UM73+Q9HC35); assay: (§1) Selectivity interaction (ProQinase) EUB0000171b ALK; format: protein assay
Chain of EML4-ALK (Homo sapiens) (Q9HC35 whole entry partner): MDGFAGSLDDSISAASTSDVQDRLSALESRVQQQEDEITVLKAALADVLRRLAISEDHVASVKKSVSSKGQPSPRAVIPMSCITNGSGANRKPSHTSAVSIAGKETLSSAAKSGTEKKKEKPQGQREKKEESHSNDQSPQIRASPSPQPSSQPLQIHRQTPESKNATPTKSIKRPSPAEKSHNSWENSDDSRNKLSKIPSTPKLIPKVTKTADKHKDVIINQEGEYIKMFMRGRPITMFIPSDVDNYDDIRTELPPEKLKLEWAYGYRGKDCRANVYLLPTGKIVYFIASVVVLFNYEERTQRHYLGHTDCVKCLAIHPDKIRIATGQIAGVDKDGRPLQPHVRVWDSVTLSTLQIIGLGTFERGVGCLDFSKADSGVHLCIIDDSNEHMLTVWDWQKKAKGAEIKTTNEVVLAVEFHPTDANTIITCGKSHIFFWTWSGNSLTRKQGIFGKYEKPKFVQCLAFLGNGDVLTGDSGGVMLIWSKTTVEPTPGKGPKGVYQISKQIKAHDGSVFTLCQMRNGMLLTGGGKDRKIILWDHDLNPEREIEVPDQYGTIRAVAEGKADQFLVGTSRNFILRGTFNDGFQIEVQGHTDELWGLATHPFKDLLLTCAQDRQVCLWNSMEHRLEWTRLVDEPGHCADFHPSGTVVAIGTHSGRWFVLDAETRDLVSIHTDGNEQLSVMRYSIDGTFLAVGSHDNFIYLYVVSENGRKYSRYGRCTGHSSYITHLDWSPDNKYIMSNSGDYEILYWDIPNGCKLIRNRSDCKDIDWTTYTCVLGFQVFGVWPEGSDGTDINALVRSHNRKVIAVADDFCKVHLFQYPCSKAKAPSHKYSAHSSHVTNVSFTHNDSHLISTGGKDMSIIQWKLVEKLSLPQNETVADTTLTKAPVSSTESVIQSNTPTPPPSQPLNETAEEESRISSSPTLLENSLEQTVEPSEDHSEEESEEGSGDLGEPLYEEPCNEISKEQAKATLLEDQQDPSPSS
Chain of EML4-ALK (Homo sapiens) (Q9UM73 19-1620 limits assumed): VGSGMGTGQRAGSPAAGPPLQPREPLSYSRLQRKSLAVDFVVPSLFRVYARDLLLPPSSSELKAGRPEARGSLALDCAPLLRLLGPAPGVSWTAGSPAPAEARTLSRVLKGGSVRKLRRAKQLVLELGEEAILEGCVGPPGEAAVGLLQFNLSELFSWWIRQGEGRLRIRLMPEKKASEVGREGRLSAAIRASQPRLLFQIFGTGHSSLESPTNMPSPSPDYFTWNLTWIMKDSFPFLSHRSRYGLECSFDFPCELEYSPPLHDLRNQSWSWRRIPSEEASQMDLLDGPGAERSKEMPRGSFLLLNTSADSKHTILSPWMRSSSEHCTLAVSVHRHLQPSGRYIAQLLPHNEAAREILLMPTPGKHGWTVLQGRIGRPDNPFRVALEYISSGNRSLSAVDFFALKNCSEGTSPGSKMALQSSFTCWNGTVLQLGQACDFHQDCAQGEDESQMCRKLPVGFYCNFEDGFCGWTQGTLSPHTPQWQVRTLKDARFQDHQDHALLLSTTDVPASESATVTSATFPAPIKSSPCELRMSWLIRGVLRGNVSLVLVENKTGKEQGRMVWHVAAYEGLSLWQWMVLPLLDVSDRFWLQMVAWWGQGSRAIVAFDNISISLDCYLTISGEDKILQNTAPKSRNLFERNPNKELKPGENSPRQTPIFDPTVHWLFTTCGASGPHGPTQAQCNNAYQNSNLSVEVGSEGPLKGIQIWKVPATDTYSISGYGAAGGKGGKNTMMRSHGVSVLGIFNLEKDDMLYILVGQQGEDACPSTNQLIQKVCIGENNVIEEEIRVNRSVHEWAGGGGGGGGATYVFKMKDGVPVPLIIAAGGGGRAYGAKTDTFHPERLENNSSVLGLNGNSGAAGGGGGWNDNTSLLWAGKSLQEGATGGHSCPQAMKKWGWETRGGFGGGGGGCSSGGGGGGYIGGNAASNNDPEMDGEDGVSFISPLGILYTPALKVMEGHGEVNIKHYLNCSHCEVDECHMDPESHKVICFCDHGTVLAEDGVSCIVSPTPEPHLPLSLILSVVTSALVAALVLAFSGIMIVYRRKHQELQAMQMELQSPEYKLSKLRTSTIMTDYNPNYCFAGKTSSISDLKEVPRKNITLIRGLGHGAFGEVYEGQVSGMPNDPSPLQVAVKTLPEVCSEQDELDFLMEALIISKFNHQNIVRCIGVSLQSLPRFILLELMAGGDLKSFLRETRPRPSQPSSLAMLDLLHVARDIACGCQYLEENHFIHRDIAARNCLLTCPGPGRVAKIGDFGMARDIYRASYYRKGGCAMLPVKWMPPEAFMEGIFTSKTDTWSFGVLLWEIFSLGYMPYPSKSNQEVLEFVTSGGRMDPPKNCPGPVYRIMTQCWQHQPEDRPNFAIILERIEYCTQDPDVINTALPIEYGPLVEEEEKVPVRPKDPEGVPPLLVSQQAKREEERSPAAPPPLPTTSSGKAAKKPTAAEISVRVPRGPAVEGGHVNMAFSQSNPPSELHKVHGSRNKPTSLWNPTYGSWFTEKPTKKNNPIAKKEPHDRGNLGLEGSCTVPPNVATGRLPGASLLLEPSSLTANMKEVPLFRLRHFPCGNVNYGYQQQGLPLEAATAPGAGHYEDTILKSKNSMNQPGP

[13] = system: EML4-ALK (Homo sapiens), Q9UM73+Q9HC35 [UNDEFINED MUTATION]; assay: as §1; format: protein assay; conditions: at 5 µM
Chain of EML4-ALK (Homo sapiens), Q9UM73+Q9HC35 [UNDEFINED MUTATION] (Q9HC35 whole entry, looked up, stated change not applied): as the sequence (Q9HC35 whole entry partner) above
Chain of EML4-ALK (Homo sapiens), Q9UM73+Q9HC35 [UNDEFINED MUTATION] (Q9UM73 whole entry, looked up, stated change not applied): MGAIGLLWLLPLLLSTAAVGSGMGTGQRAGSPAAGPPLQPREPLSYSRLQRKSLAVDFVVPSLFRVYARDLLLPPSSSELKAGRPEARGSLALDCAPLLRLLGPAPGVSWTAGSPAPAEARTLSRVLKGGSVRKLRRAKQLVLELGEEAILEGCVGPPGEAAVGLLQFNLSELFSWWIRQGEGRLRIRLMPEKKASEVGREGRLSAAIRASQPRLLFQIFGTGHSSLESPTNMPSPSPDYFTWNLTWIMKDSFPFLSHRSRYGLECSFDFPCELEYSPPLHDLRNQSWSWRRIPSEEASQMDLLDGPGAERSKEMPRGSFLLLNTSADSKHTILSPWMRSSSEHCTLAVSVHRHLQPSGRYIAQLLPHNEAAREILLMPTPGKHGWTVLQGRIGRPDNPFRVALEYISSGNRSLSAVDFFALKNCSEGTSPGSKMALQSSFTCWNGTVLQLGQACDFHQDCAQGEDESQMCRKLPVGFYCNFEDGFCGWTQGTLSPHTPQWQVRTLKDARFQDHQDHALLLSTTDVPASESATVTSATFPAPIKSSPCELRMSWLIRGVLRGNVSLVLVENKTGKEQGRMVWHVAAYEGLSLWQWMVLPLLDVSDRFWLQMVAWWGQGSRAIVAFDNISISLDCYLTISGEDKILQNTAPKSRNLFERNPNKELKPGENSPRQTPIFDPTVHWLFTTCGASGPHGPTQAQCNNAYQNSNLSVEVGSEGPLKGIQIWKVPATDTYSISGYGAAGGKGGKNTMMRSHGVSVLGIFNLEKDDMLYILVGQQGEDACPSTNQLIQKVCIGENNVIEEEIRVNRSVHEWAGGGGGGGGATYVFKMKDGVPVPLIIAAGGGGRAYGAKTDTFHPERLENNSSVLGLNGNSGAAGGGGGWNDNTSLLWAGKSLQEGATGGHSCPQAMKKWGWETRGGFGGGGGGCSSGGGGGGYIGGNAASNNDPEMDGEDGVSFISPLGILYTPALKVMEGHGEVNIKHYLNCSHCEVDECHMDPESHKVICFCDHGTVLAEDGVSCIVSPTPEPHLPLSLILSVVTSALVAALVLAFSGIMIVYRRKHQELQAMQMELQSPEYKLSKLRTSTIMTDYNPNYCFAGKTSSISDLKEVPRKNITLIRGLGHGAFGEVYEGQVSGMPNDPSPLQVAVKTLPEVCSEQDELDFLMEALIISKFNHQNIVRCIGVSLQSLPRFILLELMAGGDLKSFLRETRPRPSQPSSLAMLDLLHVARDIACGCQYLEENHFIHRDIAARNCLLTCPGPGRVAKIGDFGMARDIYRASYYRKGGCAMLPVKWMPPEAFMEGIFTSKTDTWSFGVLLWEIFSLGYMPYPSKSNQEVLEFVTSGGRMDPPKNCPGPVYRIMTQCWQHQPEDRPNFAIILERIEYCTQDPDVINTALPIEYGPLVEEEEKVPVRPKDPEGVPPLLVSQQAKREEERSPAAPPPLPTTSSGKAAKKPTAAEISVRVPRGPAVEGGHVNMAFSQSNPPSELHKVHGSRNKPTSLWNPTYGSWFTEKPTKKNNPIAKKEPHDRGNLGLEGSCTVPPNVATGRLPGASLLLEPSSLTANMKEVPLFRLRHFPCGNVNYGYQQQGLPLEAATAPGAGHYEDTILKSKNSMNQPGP

[14] = system: NPM/ALK (Nucleophosmin/ALK tyrosine kinase receptor) (Homo sapiens), Q9UM73+P06748 [F1174L]; assay: as §1; format: protein assay
[15] = biological target: Serine/threonine-protein kinase 26 (Homo sapiens, UniProt Q9P289); assay: Selectivity interaction (ProQinase) EUB0000171b STK26
Chain of Serine/threonine-protein kinase 26 (Q9P289 2-416 limits assumed): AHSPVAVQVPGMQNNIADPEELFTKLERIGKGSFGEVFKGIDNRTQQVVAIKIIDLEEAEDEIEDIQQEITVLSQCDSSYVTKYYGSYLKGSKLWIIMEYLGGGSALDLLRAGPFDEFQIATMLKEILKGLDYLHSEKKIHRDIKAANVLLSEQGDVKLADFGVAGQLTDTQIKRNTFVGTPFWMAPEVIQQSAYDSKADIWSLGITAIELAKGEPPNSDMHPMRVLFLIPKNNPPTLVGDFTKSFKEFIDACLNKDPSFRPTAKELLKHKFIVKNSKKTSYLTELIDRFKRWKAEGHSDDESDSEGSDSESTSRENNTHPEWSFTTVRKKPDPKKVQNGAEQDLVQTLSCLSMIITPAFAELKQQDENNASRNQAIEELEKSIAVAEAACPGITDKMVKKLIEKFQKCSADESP

`O=C(NOC[C@H](O)CO)c1ccc(F)c(F)c1Nc1ccc(I)cc1F` gave a % of control [1] of 100%.

For `CNCCN1CCC(c2cc(CN(C)C(=O)c3cccc(Oc4ccccc4)c3)ccn2)CC1`, the % activity [2] was greater than 90%.

`COc1cc(N(C)c2ccnc3ccc(C(F)(F)F)cc23)cc(OC)c1OC` was tested, and the % binding [3] was 67%.

In the case of `Nc1cnc(N2CCc3cc(S(=O)(=O)Nc4c(F)cc(Cl)cc4F)cc(N4CCCC4=O)c32)nc1` [TP-020n], the % of control [4] is reported as 100%.

With `CC[C@@H]1[C@H](F)C(=O)N[C@@H]1COc1nccc2cc(C(N)=O)c(OC)cc12` [ZIMLOVISERTIB] the % of inhibition [5] was 17% and the % of inhibition [6] was 2.4%.

Molecule `COCC(=O)NC/C=C/c1ccc2ncnc(Nc3ccc(Oc4ccc(C)nc4)c(C)c3)c2c1` [CP-724714] has a % of control [7] of 100%.

For `O[C@H]1CC[C@H](Nc2ncc3nc(Nc4c(F)cc(F)cc4F)n([C@H]4CCOC4)c3n2)CC1`, the % of control [8] was 70%.

With `CN(C)CCOc1ccc(-c2nc(-c3ccncc3)c(-c3ccc4c(c3)CC/C4=N\O)[nH]2)cc1` the % of control [9] was 91%.

`CNC(=O)Nc1ccc(-c2nc(N3CC4CCC(C3)O4)c3cnn(C4CCC5(CC4)OCCO5)c3n2)cc1` gave a % of control [10] of 100% and a % of inhibition [11] of 2%.

`COc1cc(C(=O)N2CC[C@@H](O)[C@@H](N)C2)cc2nc(-c3cc4ccccc4n3CC3CC3)n(C)c12` gave a pXC50 [12] of less than 4.4 M.

For `C=CC(=O)Nc1cccc(C(=O)Nc2ccc(Nc3cc(-c4[nH]c(SC)nc4C)ccn3)cc2)c1`, the % of control (EML4-ALK (Homo sapiens); at 1 µM) was 91%, the % of control (EML4-ALK (Homo sapiens); at 5 µM) was 89% and the % of control [13] was 80%. The % of control ([14]; at 1 µM) was 104%, the % of control ([14]; at 5 µM) was 106% and the % of control ([15]; at 1 µM) was 94%. It also gave a % of control ([15]; at 5 µM) of 97%.
